According to US20150160195A1, “HUMAN LIVER TUMOR CELL LINE AND METHOD OF AGENT SCREENING” (Industrial Technology Research Institute, priority 2013, published 2015):
pIC50: −log10 of the molar value.

Experiments:
[1] = system: liver cancer; details: phase III of human clinical trials; cited from earlier work
[2] = system: human liver tumor cell line ITRI-H16; assay: Cell viability of ITRI-H16 cells after 48-hour treatment, Alarmablue measurement assay; details: read-out: half maximal inhibitory concentration (IC50) in the ITRI-H16 cell line

- pIC50 [2]: ~4.85
SMILES: CNC(=O)c1cc(Oc2ccc(NC(=O)Nc3ccc(Cl)c(C(F)(F)F)c3)cc2)ccn1 [Sorafenib]
- extension of patient survival time [1]: three-month
